Active and inactive are the calls of the source. The rule behind the calls is not given here.
Assays:
GBM = assay: Antitumor activity against TMZ-resistant patient-derived human GBM cells xenografted in NOD.CB17-Prkdcscid/NCrCrl mouse assessed as reduction in tumor growth at 5 to 15 mg/kg, ip treated twice per week in presence of Tazemetostat; assay type: functional, organism-based; conditions: dose 5-15 mg/kg
[1] = Toxicity in NOD.CB17-Prkdcscid/NCrCrl mouse xenografted with TMZ-resistant patient-derived human GBM cells at 5 to 15 mg/kg, ip treated twice per week in presence of Tazemetostat; assay type: organism-based; conditions: in vivo, dose 5-15 mg/kg

## CC(C)c1cc(-c2n[nH]c(=O)n2-c2ccc3c(ccn3C)c2)c(O)cc1O [GANETESPIB]
GBM
  Activity: Active
[1]
  Activity: Toxic

Source: ChEMBL document CHEMBL5385913, “First-in-Class Dual EZH2-HSP90 Inhibitor Eliciting Striking Antiglioblastoma Activity In Vitro and In Vivo” (J Med Chem, 2024)
